Measurements from patent US20160208002A1, “Compositions Associated with and Methods of Managing Neutrophil Movement” (priority 2013, published 2016).

Tests used:
CD209 tetramer = target: T1, CD209 tetramer (Homo sapiens, UniProt Q9NNX6); details: concentration required to inhibit, by 50%, the binding of a fluorescently labeled mannosylated glycoconjugate to CD209 tetramer; cited from earlier work
T1 sequence (Q9NNX6 59-404 limits assumed): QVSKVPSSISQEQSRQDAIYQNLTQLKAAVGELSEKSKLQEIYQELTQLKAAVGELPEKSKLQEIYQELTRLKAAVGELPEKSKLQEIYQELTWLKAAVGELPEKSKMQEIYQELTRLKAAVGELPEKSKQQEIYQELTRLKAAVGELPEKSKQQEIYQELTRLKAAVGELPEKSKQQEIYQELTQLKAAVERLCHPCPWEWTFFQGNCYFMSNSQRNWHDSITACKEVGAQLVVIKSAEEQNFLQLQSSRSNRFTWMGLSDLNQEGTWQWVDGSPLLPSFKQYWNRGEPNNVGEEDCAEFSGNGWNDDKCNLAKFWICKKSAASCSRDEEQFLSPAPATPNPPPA

human neutrophils [1] = assay: human neutrophil adhesion to human fibronectin after TNF-α; type: cell-based; details: fibronectin-coated plate, FIG. 2
Description: Human blood was collected into EDTA tubes (BD Bioscience, San Jose, Calif.) from adult volunteers who gave written consent and with specific approval from the Texas A&M University human subjects Institutional Review Board. Neutrophils were then isolated from the blood using Lympholyte-poly (Cedarlane Laboratories, Hornby, BC, Canada) following the manufacturer's protocol and resuspended in 2% bovine serum albumen (BSA) (fraction V, A3059; Sigma-Aldrich) in RPMI 1640 medium (Lonza, Allendale, N.J.). 96-well tissue culture plates (flat-bottom polystyrene, BD Bioscience) were pre-coated with 20 μg/ml of human plasma fibronectin (Trevigen, Gaithersburg, Md.) in phosphate buffered saline (PBS) for 30 minutes at 37° C. and then blocked with 2% BSA in RPMI for 1 hour at 37° C. 50 microliters of 5×10^5 cells/ml neutrophils were incubated with 3 microgram/ml (0.5 microliters of the stock solution) of compound 1 or 3 for 30 minutes at 37° C. in a 1.5 ml Eppendorf tube (Eppendorf, Hauppauge, N.Y.). When testing the effect of CD209 antibodies on neutrophil adhesion to human fibronectin, anti-human CD209 antibodies clone DCN46 (BD Biosciences, San Jose, Calif.), eB-h209 (eBioscience, San Jose, Calif.), H-200 (Santa Cruz Biotechnology, Dallas, Tex.), ab89186 (Abcam, Cambridge, Mass.), or 9E9A8 (Biolegend Inc, San Diego, Calif.) were incubated with neutrophils at a concentration of 1 microgram/ml (0.2 microliters of the stock solution) or the concentration indicated on the figure. Rat IgG2a was used as an isotype control for the anti-human CD209 antibody clone eB-h209. Mouse IgG2b was used as an isotype control for the anti-human CD209 antibody clone DCN46. Mouse IgG1 was used as an isotype control for the anti-human CD209 antibody clone 9E9A8. Rabbit IgG was used as an isotype control for the two rabbit anti-human CD209 antibodies clone H-200 and ab89186. […] After removing the media and washing the plates 3 times with PBS, the plates were air-dried, fixed, stained, and the number of neutrophils that remained in the wells was counted. […]

human neutrophils [2] = assay: human neutrophil spreading on fibronectin-coated plates after TNF-α; type: cell-based; details: 3 microgram/ml compound, FIG. 3
[3] = test system: C57/BL6 mice treated with bleomycin; assay: bleomycin-treated mice, cells in bronchoalveolar lavage (BAL); type: in vivo; details: 0.1 mg/kg intraperitoneal daily from day 1, day 3 after bleomycin, versus drug vehicle; FIG. 5A
Protocol: The successful aspiration of bleomycin into the lungs was confirmed by listening for the crackling noise heard after the aspiration. 24 hours following bleomycin aspiration (day 1), mice were treated daily with intraperitoneal injections of 50 microliters of PBS containing 2 microliters of 1 mg/ml of compound 1 (ChemBridge Corporation, San Diego, Calif.) (0.1 mg/kg) dissolved in DMSO (SigmaAldrich, St. Louis, Mo.) or an equal volume of PBS containing 2 microliters of DMSO. All animals were used in accordance with rules published by the National Institutes of Health and with a protocol approved by the Texas A&M University Institutional Animal Care and Use Committee. Mice were weighed daily, and euthanized using CO2 following NIH guidelines at day 3 after bleomycin aspiration. There were no injections on day 3. […] The cells were resuspended in 500 microliters of 4% (w/v) BSA-PBS and counted with a hemacytometer. […] Primary antibodies were detected with biotinylated mouse anti-rat antibody (Jackson ImmunoResearch, West Grove, Pa.). […] Biotinylated antibodies were detected by a 1/500 dilution of ExtrAvidin alkaline phosphatase (Vector Laboratories, Burlingame, Calif.) in 4% BSA-PBS for 30 minutes. […] After washing, the biotinylated antibodies were detected by streptavidin-alkaline phosphatase kit (Vector Laboratories) following the manufacturer's protocol.

[4] = test system: C57/BL6 mice treated with bleomycin; assay: bleomycin-treated mice, cells in lung sections after BAL; type: in vivo; details: 0.1 mg/kg intraperitoneal daily, day 3 after bleomycin, FIG. 5B
Protocol: The successful aspiration of bleomycin into the lungs was confirmed by listening for the crackling noise heard after the aspiration. 24 hours following bleomycin aspiration (day 1), mice were treated daily with intraperitoneal injections of 50 microliters of PBS containing 2 microliters of 1 mg/ml of compound 1 (ChemBridge Corporation, San Diego, Calif.) (0.1 mg/kg) dissolved in DMSO (SigmaAldrich, St. Louis, Mo.) or an equal volume of PBS containing 2 microliters of DMSO. All animals were used in accordance with rules published by the National Institutes of Health and with a protocol approved by the Texas A&M University Institutional Animal Care and Use Committee. Mice were weighed daily, and euthanized using CO2 following NIH guidelines at day 3 after bleomycin aspiration. There were no injections on day 3. […] The cells from the first BAL collection were collected by centrifugation at 500×g for 10 minutes. The BAL pellets were resuspended in the secondary and tertiary BAL fluid and the combined cells were collected by centrifugation at 500×g for 5 minutes. The cells were resuspended in 500 microliters of 4% (w/v) BSA-PBS and counted with a hemacytometer. 100 microliters of diluted cells were then aliquoted into cytospin funnels and were then spun onto glass slides (Superfrost plus white slides, VWR) at 400×g for 5 minutes using a cytospin centrifuge (Shandon, Cheshire, England). These cells were then air dried, and stained with anti-mouse Ly6G (Biolegend) to detect neutrophils, anti-mouse CD11b (Biolegend) to detect granulocytes, monocytes, and macrophages, anti-mouse CD11c (MBL International) to detect alveolar macrophages and dendritic cells, or anti-mouse CD45 (Biolegend) to detect leukocytes. For all slides, non-specific; binding was blocked by incubation in PBS containing 4% BSA for 60 minutes. Slides were then incubated with 5 microgram/ml primary antibodies in 4% BSA-PBS for 60 minutes. Primary antibodies were detected with biotinylated mouse anti-rat antibody (Jackson ImmunoResearch, West Grove, Pa.). All secondary antibodies were used at 2.5 microgram/ml in 4% BSA-PBS for 30 minutes. Biotinylated antibodies were detected by a 1/500 dilution of ExtrAvidin alkaline phosphatase (Vector Laboratories, Burlingame, Calif.) in 4% BSA-PBS for 30 minutes. Staining was developed with the Vector Red Alkaline Phosphatase Kit (Vector Laboratories) for 4 minutes following the manufacturer's protocol. […] After washing, the biotinylated antibodies were detected by streptavidin-alkaline phosphatase kit (Vector Laboratories) following the manufacturer's protocol.

CD209 = target: T2, CD209 (Homo sapiens, UniProt Q9NNX6); details: read-out: affinity for CD209, Kd; cited from earlier work
T2 sequence (Q9NNX6 1-404): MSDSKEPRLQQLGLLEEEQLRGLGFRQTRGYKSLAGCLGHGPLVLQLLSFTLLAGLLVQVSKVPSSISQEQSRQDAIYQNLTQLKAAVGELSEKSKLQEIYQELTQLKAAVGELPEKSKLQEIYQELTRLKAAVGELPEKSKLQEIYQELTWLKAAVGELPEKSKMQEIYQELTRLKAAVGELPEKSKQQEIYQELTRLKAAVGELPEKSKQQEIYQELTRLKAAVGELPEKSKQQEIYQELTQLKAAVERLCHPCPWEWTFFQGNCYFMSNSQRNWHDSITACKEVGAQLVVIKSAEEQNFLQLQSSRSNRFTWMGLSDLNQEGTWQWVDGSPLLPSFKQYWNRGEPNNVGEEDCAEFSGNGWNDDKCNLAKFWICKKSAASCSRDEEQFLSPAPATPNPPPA

[5] = 3 microgram/ml compound, 30 minutes

Row | Compound | IC50 (CD209 tetramer) | Kd (CD209) | further results
1 | O=C(O)c1ccc(CCCC2Nc3ccc(C(=O)N4CCN(c5ccco5)CC4)cc3NC2=O)cc1 (stereo not shown) [Compound 20] | 10 µM |  | 
2 | CCCCC1Nc2ccc(C(=O)N3CCN(C)CC3)cc2NC1=O (stereo not shown) [Compound 12] | 313 µM |  | 
3 | NC(=O)c1ccc(CCCC2Nc3ccc(C(=O)N4CCN(c5ncccn5)CC4)cc3NC2=O)cc1 (stereo not shown) [Compound 22] | 2.6 µM |  | 
4 | COc1ccccc1N1CCN(C(=O)c2ccc3c(c2)NC(=O)C(CCCc2ccccc2C)N3)CC1 (stereo not shown) [Compound 21] | 4.4 µM |  | 
5 | CCN1c2ccc(C(=O)N3CCN(c4ncccn4)CC3)cc2NC(=O)C1CCCc1ccc(C(N)=O)cc1 (stereo not shown) [Compound 17] | 68 µM |  | 
6 | O=C1Nc2cc(C(=O)N3CCN(c4ccccc4)CC3)ccc2NC1CCCc1ccccc1C(F)(F)F (stereo not shown) [Compound 16] | 71 µM |  | 
7 | CC(=O)Nc1cccc(CCCC2Nc3ccc(C(=O)N4CCN(c5cccc(C(F)(F)F)c5)CC4)cc3NC2=O)c1 (stereo not shown) [Compound 19] | 23 µM |  | 
8 | CCC(=O)Nc1nc(C)c(-c2csc(Nc3ccc(N(C)C)cc3)n2)s1 [Compound 1] |  | 1.6 µM | neutrophil adhesion compared to the TNF-α control (human neutrophils [1]; [5]): significantly reduced neutrophil adhesion; neutrophil spreading compared to the TNF-α control (human neutrophils [2]): reduced neutrophil spreading; number of CD11b-positive inflammatory macrophages in the BAL [3]: decrease; number of Ly6G-positive neutrophils in the BAL [3]: decrease; CD11c-positive macrophages in lung sections ([4]; versus drug vehicle): significant increase; CD206-positive cells in lung sections ([4]; versus drug vehicle): significant increase; number of Ly6G-positive neutrophils in lung sections ([4]; versus drug vehicle): significant decrease; CD11b-positive inflammatory macrophages in lung sections [4]: no effect
9 | CN1CCN(c2ccc(/C=C3\Sc4ccccc4C3=O)cc2[N+](=O)[O-])CC1 [Compound 7] |  | 10 µM | 
10 | CCCCCC1C(=O)Nc2cc(C(=O)N3CCN(CCC)CC3)ccc2N1CC (stereo not shown) [Compound 9] | 370 µM |  | 
11 | CCCCCC1C(=O)Nc2cc(C(=O)N3CCN(CC)CC3)ccc2N1C (stereo not shown) [Compound 10] | 360 µM |  | 
12 | O=C1Nc2cc(C(=O)N3CCN(c4ccccc4O)CC3)ccc2NC1CCCc1ccccc1 (stereo not shown) [Compound 15] | 113 µM |  | 
13 | SAP: Serum Amyloid P from EMD Millipore, known to inhibit neutrophil migration and adhesion [reference compound] |  |  | neutrophil adhesion compared to the TNF-α control (human neutrophils [1]; 10 microgram/ml SAP): significantly reduced neutrophil adhesion
14 | Cc1ccc(N(C)S(=O)(=O)c2ccc3[nH]cc(C(=O)N4CCN(c5ccccc5)CC4)c(=O)c3c2)cc1C [Compound 6] |  | 6.1 µM | 
15 | CCCOC(=O)c1ccc(-c2ccc(C=C3C(=O)N(c4ccc(S(N)(=O)=O)cc4)N=C3C(F)(F)F)o2)cc1 [Compound 2] |  | 6.2 µM | 
16 | COC(=O)c1ccc(-c2ccc(C=C3C(=O)N(c4ccc(S(N)(=O)=O)cc4)N=C3C(F)(F)F)o2)cc1 [Compound 3] |  | 32 µM | neutrophil adhesion compared to the TNF-α control (human neutrophils [1]; [5]): significantly reduced neutrophil adhesion
17 | CCCCC1C(=O)Nc2cc(C(=O)N3CCN(C)CC3)ccc2N1C (stereo not shown) [Compound 11] | 329 µM |  | 
18 | CCC(=O)CCCC1C(=O)Nc2cc(C(=O)N3CCN(c4ccccc4)CC3)ccc2N1Cc1ccccc1 (stereo not shown) [Compound 14] | 170 µM |  | 
19 | O=C1Nc2cc(C(=O)N3CCN(c4ccccc4)CC3)ccc2NC1CSCc1c(F)cccc1Cl (stereo not shown) [Compound 4] |  | 7.3 µM | 
